The source of these data is EP0966464B1, “SUBSTITUTED 2,4-DIAMINOPYRIMIDINES” (priority 1997, dated 1998).

SMILES strings stand for the structures.

Assay in all cases: Inhibition of purified bacterial dihydrofolate reductase (method of Baccanari and Joyner)
Common to all, as to format: biochemical

Experiment [1] has as its target T1, purified DHFR of the multiresistant strain Streptococcus pneumoniae 1/1 (Streptococcus pneumoniae serotype 4, UniProt Q54801).
T1 sequence (Q54801 1-168): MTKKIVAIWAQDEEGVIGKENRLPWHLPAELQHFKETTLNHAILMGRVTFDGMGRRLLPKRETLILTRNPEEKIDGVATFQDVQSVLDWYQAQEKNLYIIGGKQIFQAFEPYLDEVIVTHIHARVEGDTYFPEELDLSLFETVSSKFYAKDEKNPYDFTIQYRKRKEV
As to conditions: read-out: IC50 values S.pneumoniae 1/1, IC50 determined by means of a graph. The source says: (§1) The inhibition of this enzyme was taken as a measurement of the antibacterial activity.

The target of experiment [2] is purified DHFR of the reference strain S. aureus ATCC 25923 (Staphylococcus aureus, UniProt P0A017).
Source text: as §1

Experiment [3] deals with purified DHFR of the multiresistant strain S. aureus 157/4696 (Staphylococcus aureus, UniProt P0A017). As to conditions: read-out: IC50 values S.aureus 157/4696, IC50 determined by means of a graph.
Source text: as §1

As to `COc1cc(Cc2cnc(N)nc2N)cc(/C=C/C(=O)N2N=Cc3ccccc3C2c2ccccc2)c1OC` (racemic) [A, (E)-(RS)-3-[5-(2,4-Diamino-pyrimidin-5-ylmethyl)-2,3-dimethoxyphenyl]-1-(1-phenyl-1H-phthalazin-2-yl)-propenone], the IC50 in experiment [1] is 12 nM; in experiment [2] it was 2 nM; in experiment [3] it was 2 nM.

Consider `COc1cc(Cc2cnc(N)nc2N)cc(/C=C/C(=O)N2N=Cc3ccccc3C2c2ccco2)c1OC` (racemic) [B, (E)-(RS)-3-[5-(2,4-Diamino-pyrimidin-5-ylmethyl)-2,3-dimethoxyphenyl]-1-(1-furan-2-yl-1H-phthalazin-2-yl)-propenone], for which the IC50 in experiment [1] turned out to be 22 nM; in experiment [2] it was 2 nM; in experiment [3] it was 8 nM.

`COc1cc(Cc2cnc(N)nc2N)cc(/C=C/C(=O)N2N=Cc3ccccc3C2c2ccc(CO)cc2)c1OC` (racemic) [C, (E)-(RS)-3-[5-(2,4-Diamino-pyrimidin-5-ylmethyl)-2,3-dimethoxyphenyl]-1-[1-(4-hydroxymethyl-phenyl)-1H-phthalazin-2-yl]-propenone]: the results for the IC50 in experiment [1], in experiment [2] and in experiment [3] were 2 nM, 1 nM and 1 nM, respectively.

As to `COc1cc(Cc2cnc(N)nc2N)cc(/C=C/C(=O)N2N=Cc3ccccc3C2c2ccc(O)cc2)c1OC` (racemic) [D, (E)-(RS)-3-[5-(2,4-Diamino-pyrimidin-5-ylmethyl)-2,3-dimethoxyphenyl]-1-[1-(4-hydroxy-phenyl)-1H-phthalazin-2-yl]-propenone], the IC50 in experiment [1] was 9 nM; in experiment [2] it was 2 nM; in experiment [3], 3 nM.

Regarding `CCC1c2ccccc2C=NN1C(=O)/C=C/c1cc(Cc2cnc(N)nc2N)cc(OC)c1OC` (racemic) [E, (E)-(RS)-3-[5-(2,4-Diamino-pyrimidin-5-ylmethyl)-2,3-dimethoxyphenyl]-1-(1-ethyl-1H-phthalazin-2-yl)-propenone], the figures for the IC50 in experiment [1], in experiment [2] and in experiment [3] were 18 nM, 2 nM and 12 nM, respectively.

For `COc1cc(Cc2cnc(N)nc2N)cc(/C=C/C(=O)N2N=Cc3ccccc3C2CCCCO)c1OC` (racemic) [F, (E)-(RS)-3-[5-(2,4-Diamino-pyrimidin-5-ylmethyl)-2,3-dimethoxyphenyl]-1-[1-(4-hydroxy-butyl)-1H-phthalazin-2-yl]-propenone], the IC50 in experiment [1] was 9 nM; in experiment [2], 1 nM; in experiment [3], 3 nM.

For `CCCC1c2ccccc2C=NN1C(=O)/C=C/c1cc(Cc2cnc(N)nc2N)cc(OC)c1OC` (racemic) [G, (E)-(RS)-3-{5-(2,4-Diamino-pyrimidin-5-ylmethyl)-2,3-dimethoxyphenyl}-1-(1-propyl-1H-phthalazin-2-yl)-propenone], the IC50 in experiment [1] was 5 nM; in experiment [2] it was 2 nM; in experiment [3] it was 6 nM.

Consider `COc1cc(Cc2cnc(N)nc2N)cc(/C=C/C(=O)N2N=Cc3ccccc3C2c2ccc(C)nc2)c1OC` (racemic) [I, (E)-(RS)-3-[5-(2,4-Diamino-pyrimidin-5-ylmethyl)-2,3-dimethoxyphenyl)-1-[1-(6-methyl-pyridin-3-yl)-1H-phthalazin-2-yl]-propenone], for which the IC50 in experiment [1], in experiment [2] and in experiment [3] was 0.4 nM in each case.

Regarding `CCc1ccc(C2c3ccccc3C=NN2C(=O)/C=C/c2cc(Cc3cnc(N)nc3N)cc(OC)c2OC)cn1` (racemic) [J, (E)-(RS)-3-[5-(2,4-Diamino-pyrimidin-5-ylmethyl)-2,3-dimethoxyphenyl]-1-[1-(6-ethyl-pyridin-3-yl)-1H-phthalazin-2-yl]-propenone], the IC50 amounted to 1.5 nM in experiment [1], 0.3 nM in experiment [2] and 0.2 nM in experiment [3].

Turning to `COc1cc(Cc2cnc(N)nc2N)cc(/C=C/C(=O)N2N=Cc3ccccc3C2c2cnc(C)nc2)c1OC` (racemic) [K, (E)-(RS)-3-[5-(2,4-Diamino-pyrimidin-5-ylmethyl)-2,3-dimethoxyphenyl]-1-[1-(2-methyl-pyrimidin-5-yl)-1H-phthalazin-2-yl]-propenone], the IC50 was determined as 2.5 nM in experiment [1], 0.6 nM in experiment [2] and 0.6 nM in experiment [3].

Take `COc1cc(Cc2cnc(N)nc2N)cc(/C=C/C(=O)N2N=Cc3ccccc3[C@@H]2c2ccc(C)nc2)c1OC` [H, (E)-(R)-3-[5-(2,4-Diamino-pyrimidin-5-ylmethyl)-2,3-dimethoxy-phenyl]-1-[1-(6-methyl-pyridin-3-yl)-1H-phthalazin-2-yl]-propenone]: the IC50 is 1.2 nM in experiment [1], 0.3 nM in experiment [2] and 0.4 nM in experiment [3].
